# How the values were obtained:
# [1] = system: wild-type PANC-1 cells; test: Crystal violet combination assay in wild-type PANC-1 cells; assay type: cell-based, human; conditions: 120 h drug incubation
# Experimental: For the crystal violet assay, cells were seeded into 6-well plates at a density of 40,000 cells/well or into 48-wells with 4000 cells/well. One day after seeding, the cells were experimentally treated. Control conditions consisted of either growth medium (‘untreated’) or DMSO diluted in growth medium. All treatments were performed in triplicates. The cells were then kept in the CO2 incubator at 37 °C until staining with crystal violet dye for 10mins and let to dry overnight. The following day crystal violet dye was dissolved using 20% acetic acid and absorbance was measured at 570 nm.
# Experiments with 4 different concentrations of either SCO-101 or paclitaxel and their combinations were applied to test for synergy among these two compounds in both the PANC-1 parental and -Paclitaxel resistant cells. […] The SRPK1 inhibitor SPHINX31 was tested at 0.1; 0.5; 1 and 5 µM. The SRPK1 inhibitor SRPIN was tested at 1; 5; 10 and 50 µM. Both inhibitors were tested in combination with 5, 10, 15 and 20 nM Paclitaxel.
# A) the resistant PANC-1-Pac and B) the sensitive parental PANC-1 cell lines. Cells were either 1) untreated, 2) incubated with 30µM SCO-101, 3) 40µM SCO-101, 4) 4nM paclitaxel, 5) 30µM SCO-101 + 4nM paclitaxel or 6) 40µM SCO-101 + 4nM paclitaxel. Drug incubation for 120 hours was followed by staining with crystal violet.
# [2] = system: patients with non-resectable or metastatic PDAC; test: PANTAX phase Ib: efficacy (RECIST v1.1, PFS, OS, Ca 19-9); assay type: in vivo, human; conditions: SCO-101 with Gem and Nab
# Source text: The PANTAX trial was a prospective, international multicenter phase Ib open-label, non-randomized, dose-escalation study aiming to determine the MTD, safety, and tolerability of SCO-101 when combined with Gem and Nab in patients with non-resectable or metastatic PDAC (Protocol nr. SCO101-002, EudraCT nr. 2020–002627-11; ClinicalTrials.gov identifier NCT04652206). Furthermore, the study aimed to establish the pharmacokinetic profile of SCO-101 in combination with Gem and Nab. ORR, clinical benefit rate (CBR), median progression free survival (mPFS), and mOS were included as secondary end points.
# Tumor evaluation by CT and MRI scans were done every 8 weeks. Response was determined according to RECIST v 1.1 [21] by local assessment. ORR was determined as the percentage of evaluable patients experiencing a complete response (CR) or partial response (PR). CBR was determined as the percentage of evaluable patients experiencing response or stable disease (SD) for over 16 weeks. Date of study inclusion was the index date. For assessment of PFS, the date of PD was the date of imaging showing progression or date of last treatment in patients with deteriorating clinical condition. Patients not followed until progression were censored for PFS at the date of last follow-up. One patient was lost to follow-up for survival and was censored from OS analysis on the date of last visit. End of study was 6 months after the last patients last treatment visit.
# [3] = PANTAX phase Ib: plasma pharmacokinetics of SCO-101; assay type: in vivo, human
# Experimental: Pharmacokinetics (PK) blood samples were drawn during the first cycle of treatment on day one of SCO-101 administration (6 time points), on day six (6 time points), and on day nine (72 h after last SCO-101 treatment). Plasma samples were analyzed for SCO-101 using a bioanalytical method (BM/2020/0998) developed and validated under study KF64YR at LabCorp (England). SCO-101 was extracted from human plasma by protein precipitation and analyzed by liquid chromatography using tandem mass spectrometry (LC–MS/MS). Pharmacokinetic parameters were determined by noncompartmental analysis using the software package SAS (version 9.4 or higher). The PK profile of SCO-101 was evaluated by maximum drug plasma concentration (Cmax) and area under the plasma drug concentration–time curve (AUC0 to 8 h).
compound,measurement,setting,value
O=C(Nc1cc(C(F)(F)F)cc(C(F)(F)F)c1)Nc1ccc(Br)cc1-c1nnn[nH]1 [SCO-101],combination effect of SCO-101 and paclitaxel,[1],no combination effect
same,patients with reduction of serum Ca 19-9 of at least 25%,[2]; 15 patients with elevated Ca 19-9 at treatment initiation,53%
same,objective response rate (ORR),[2]; 15 evaluable patients,6.7%
same,median progression-free survival (mPFS),[2]; CI 1.7-9.2 months,3.3 months
same,median overall survival (mOS),[2]; CI 5.7-16 months,9.5 months
same,clinical benefit rate (CBR),"[2]; response or SD over 16 weeks, 15 evaluable patients",33%
same,increase in exposure with dose,"[3]; 50-250 mg daily, Cmax and AUC0-8 h",approximately dose proportional
same,fraction of SCO-101 Cmax present at day 9,"[3]; average, 200 mg and 250 mg doses, 72 h after last SCO-101 treatment",33%
same,accumulation of Cmax and AUC0-8 h,"[3]; daily doses for 6 consecutive days, plasma, patients",two- to threefold

# From publication PMC12048447, “PANTAX: a phase Ib clinical trial of the efflux pump inhibitor SCO-101 in combination with gemcitabine and nab-paclitaxel in non-resectable or metastatic pancreatic cancer” (Investigational New Drugs, 2025)
